Structures can show the parent of a compound that is named as a salt.
How the values were obtained:
[1] = system: sorbitol accumulation in the sciatic nerve of streptozotocinized (i.e., diabetic) rats; assay: inhibition of sorbitol accumulation in the sciatic nerve of streptozotocinized (diabetic) rats; type: in vivo, rat; conditions: measured at 27 hours, vs untreated
Method: (§1) The activity of the compounds of the present invention, as agents for the control of chronic diabetic complications, is determined by their ability to successfully pass one or more of the following standard biological and/or pharmacological tests, viz., (1) measuring their ability to inhibit the enzyme activity of isolated aldose reductase; (2) measuring their ability to reduce or inhibit sorbitol accumulation in the sciatic nerve of acutely streptozotocinized (i.e., diabetic) rats; (3) measuring their ability to reverse alredy-elevated sorbitol levels in the sciatic nerve and lens of chronic streptozotocin-induced diabetic rats; (4) measuring their ability to prevent or inhibit galactitol formation in the lens of acutely galactosemic rats, and (5) measuring their ability to delay cataract formation and reduce the severity of lens opacities in chronic galactosemic rats.
The following spiro-hydantoin compounds of Preparations B and C and Examples I-II, respectively, were tested for their ability to reduce or inhibit sorbitol accumulation in the sciatic nerve of streptozotocinized (i.e., diabetic) rats by the procedure essentially described in U.S. Pat. No. 3,821,383. In the present study, the amount of sorbitol accumulation in the sciatic nerves was measured 27 hours after induction of diabetes. The compounds were administered orally at the dose levels indicated 4, 8 and 24 hours following the administration of streptozotocin. The results obtained in this manner are presented below in terms of percent inhibition (%) afforded by the test compound as compared to the case where no compound was administered (i.e., the untreated animal where sorbitol levels normally rise from approximately 50-100 mM/g. tissue to as high as 400 mM/g. tissue in the 27-hour test period): […]

[2] = system: galactitol levels in the lens of galactosemic subjects; assay: lowering of galactitol levels in the lens of galactosemic subjects; type: in vivo, rat
Method: as §1

[3] = system: sorbitol levels in the sciatic nerve and lens of diabetic subjects; assay: lowering of sorbitol levels in the sciatic nerve and lens of diabetic subjects; type: in vivo, rat
Method: as §1

[4] = target: T1, partially purified aldose reductase enzyme obtained from calf lens (Bos taurus, UniProt P16116); assay: inhibition of isolated aldose reductase enzyme activity (procedure of S. Hayman et al., as modified by K. Sestanj et al.); type: biochemical; conditions: for inhibition at 100 µM / inhibition at 10 µM / Percent Inhibition (%) of aldose reductase enzyme activity / inhibition at 1 µM / inhibition at 0.1 µM: calf lens enzyme; for inhibition at 100 µM / inhibition at 10 µM / inhibition at 1 µM / inhibition at 0.1 µM: read-out: Percent Inhibition (%) of aldose reductase enzyme activity
T1 construct: partially purified aldose reductase enzyme obtained from calf lens; from tissue; host or cells: calf lens
Method: as §1
In every case, the substrate employed was partially purified aldose reductase enzyme obtained from calf lens.

solubility in water = type: physicochemical; conditions: amorphous powder, freeze-dried
[5] = system: sorbitol levels in diabetic rats; assay: control (inhibition) of formation of sorbitol levels in diabetic rats, oral; type: in vivo, rat; conditions: 0.25 mg./kg. to 5.0 mg./kg.
Source text: As previously indicated, the dextrorotatory spiro-hydantoin compounds of this invention are all readily adapted to therapeutic use as aldose reductase inhibitors for the control of chronic diabetic complications, in view of their ability to reduce lens sorbitol levels in diabetic subjects to a statistically significant degree. […] The other compounds of this invention also cause similar results. Furthermore, the herein described compounds of this invention can be administered by either the oral or parenteral routes of administration, for the present purposes at hand, without causing any significant untoward pharmacological side reactions to occur in the subject to whom they are so administered. In general, these compounds are ordinarily administered in dosages ranging from about 0.05 mg. to about 5.0 mg. per kg. of body weight per day, although variations will necessarily occur depending upon the weight and condition of the subject being treated and the particular route of administration chosen.

[6] = 0.75 mg./kg. orally at 4, 8 and 24 hours after streptozotocin
[7] = 2.5 mg./kg. orally at 4, 8 and 24 hours after streptozotocin
[8] = 0.25 mg./kg. orally at 4, 8 and 24 hours after streptozotocin
[9] = 1.5 mg./kg. orally at 4, 8 and 24 hours after streptozotocin

In the case of `O=C1NC(=O)C2(CCSc3ccc(F)cc32)N1` (single isomer, unassigned) [d-Isomer of Ex. II, d-6'-fluoro-spiro-[imidazolidine-4,4'-thiochroman]-2,5-dione], the “Percent Inhibition (%) of sorbitol accumulation in the sciatic nerve” value (shortened to “Percent Inhibition (%) … in the sciatic nerve”) [1, 6] is reported as 55%, the “lowering galactitol levels in the lens (in words)” value [2] is reported as “to a very significantly high degree” and the “lowering sorbitol levels in the sciatic nerve and lens (in words)” value [3] is reported as “equally effective in lowering sorbitol levels in the sciatic nerve and lens of diabetic subjects”. The “aldose reductase inhibitory activity (in words)” value [4] was “extremely potent”, the inhibition at 100 µM ([4]; 10^-4 M) was 89% and the inhibition at 10 µM ([4]; 10^-5 M) was 80%. The “Percent Inhibition (%) of aldose reductase enzyme activity” value ([4]; 10^-6 M) was 76% and the “Percent Inhibition (%) of aldose reductase enzyme activity” value ([4]; 10^-7 M) was 74%.

In the case of `O=C1NC(=O)C2(CCOc3ccc(F)cc32)N1` (single isomer, unassigned) [1-Isomer of Ex. I, l-6-fluoro-spiro-[chroman-4,4'-imidazolidine]-2',5'-dione], the “Percent Inhibition (%) … in the sciatic nerve” value [1, 6] is reported as 19%, the “Percent Inhibition (%) … in the sciatic nerve” value [1, 7] is reported as 6% and the “Percent Inhibition (%) … in the sciatic nerve” value ([1]; 5.0 mg./kg. orally at 4, 8 and 24 hours after streptozotocin) is reported as 22%. The “Percent Inhibition (%) of aldose reductase enzyme activity” value ([4]; 10^-4 M) was 88%, the “Percent Inhibition (%) of aldose reductase enzyme activity” value ([4]; 10^-5 M) was 63% and the “Percent Inhibition (%) of aldose reductase enzyme activity” value ([4]; 10^-6 M) was 23%. The “Percent Inhibition (%) of aldose reductase enzyme activity” value ([4]; 10^-7 M) was -4%.

With `O=C1NC(=O)C2(CCOc3ccc(F)cc32)N1` (single isomer, unassigned) [sodium salt of d-6-fluoro-spiro-[chroman-4,4'-imidazolidine]-2',5'-dione] the “solubility in water (in words)” value (solubility in water) was “freely soluble in water”.

For `O=C1NC(=O)C2(CCOc3ccc(F)cc32)N1` (racemic) [dl-Cpd. of Prep. B, dl-6-fluoro-spiro-[chroman-4,4'-imidazolidine]-2',5'-dione], the “Percent Inhibition (%) … in the sciatic nerve” value [1, 8] was 19%, the “Percent Inhibition (%) … in the sciatic nerve” value [1, 6] was 45% and the “Percent Inhibition (%) … in the sciatic nerve” value [1, 9] was 72%. For the same compound, the inhibition at 100 µM ([4]; 10^-4 M) was 85%, the inhibition at 10 µM ([4]; 10^-5 M) was 58% and the inhibition at 1 µM ([4]; 10^-6 M) was 52%. The inhibition at 0.1 µM ([4]; 10^-7 M) was 3%.

With `O=C1NC(=O)C2(CCOc3ccc(F)cc32)N1` (single isomer, unassigned) [d-Isomer of Ex. I, d-6-fluoro-spiro-[chroman-4,4'-imidazolidine]-2',5'-dione] the “Percent Inhibition (%) … in the sciatic nerve” value [1, 8] was 47%, the “Percent Inhibition (%) … in the sciatic nerve” value [1, 6] was 78% and the “lowering galactitol levels in the lens (in words)” value [2] was “to a very significantly high degree”. For the same compound, the “lowering sorbitol levels in the sciatic nerve and lens (in words)” value [3] was “equally effective in lowering sorbitol levels in the sciatic nerve and lens of diabetic subjects”, the “aldose reductase inhibitory activity (in words)” value [4] was “extremely potent” and the inhibition at 100 µM ([4]; 10^-4 M) was 100%. For the same compound, the “Percent Inhibition (%) of aldose reductase enzyme activity” value ([4]; 10^-6 M) was 98%, the “Percent Inhibition (%) of aldose reductase enzyme activity” value ([4]; 10^-7 M) was 39% and the “control (i.e., inhibit) the formation of sorbitol levels (in words)” value [5] was “to a significantly high degree”.

For `O=C1NC(=O)C2(CCSc3ccc(F)cc32)N1` (single isomer, unassigned) [1-Isomer of Ex. II, l-6'-fluoro-spiro-[imidazolidine-4,4'-thiochroman]-2,5-dione], the “Percent Inhibition (%) of aldose reductase enzyme activity” value ([4]; 10^-4 M) was 87%, the “Percent Inhibition (%) of aldose reductase enzyme activity” value ([4]; 10^-5 M) was 65% and the “Percent Inhibition (%) of aldose reductase enzyme activity” value ([4]; 10^-6 M) was 11%. The “Percent Inhibition (%) of aldose reductase enzyme activity” value ([4]; 10^-7 M) was 10%.

With `O=C1NC(=O)C2(CCSc3ccc(F)cc32)N1` (racemic) [dl-Cpd. of Prep. C, dl-6'-fluoro-spiro-[imidazolidine-4,4'-thiochroman]-2,5-dione] the “Percent Inhibition (%) … in the sciatic nerve” value [1, 6] was 13%, the “Percent Inhibition (%) … in the sciatic nerve” value [1, 9] was 45% and the “Percent Inhibition (%) … in the sciatic nerve” value [1, 7] was 74%. The inhibition at 100 µM ([4]; 10^-4 M) was 81%, the inhibition at 10 µM ([4]; 10^-5 M) was 77% and the inhibition at 1 µM ([4]; 10^-6 M) was 66%. For the same compound, the inhibition at 0.1 µM ([4]; 10^-7 M) was 38%.
